{
  "source": "patent US8026211B2",
  "about": "“Methods and formulations for increasing intestinal function” (Technion Research & Development Foundation Ltd., priority 2004, dated 2011)",
  "assay_type_in_all_cases": "in vivo",
  "key": {"[1]": {"test_system": "jejunal and ileal crypt cells", "experiment": "Rat ischemia-reperfusion injury: crypt cell proliferation (5-BrdU)", "details": "IR rats, oral insulin, p<0.05", "protocol": "(§1) Surgical procedure: Following overnight fasting, the animals were anesthetized with intraperitoneal injection of pentobarbital (IP 40 mg/kg). Using sterile techniques, the abdomen was opened using a midline incision. […] IR underwent laparotomy, mobilization and occlusion of SMA and portal vein by vascular clamp for 30 minutes followed by a reperfusion period of 24 hours. Before closure of the abdomen, the rats were resuscitated with a 3-ml intraperitoneal injection of warm 0.9% saline. For all operations, the abdominal cavity was closed in two layers with a running suture of Dexon “S” Polyglycolic Acid 3/0. Rats were allowed free access to water and food. Twenty-four hours later, the rats were anesthetized with intraperitoneal pentobarbital (75 mg/kg) and were sacrificed by open pneumothorax.\nEnterocyte proliferation and apoptosis: Crypt cell proliferation was assessed using 5-bromodeoxyuridine (5-BrdU). Standard BrdU labeling reagent (Zymed Laboratories, Inc, San Francisco, Calif.) was injected intraperitoneally at a concentration of 1 ml/100 g body weight 2 hours prior to sacrifice. […] An index of proliferation was determined as the ratio of crypt cells staining positively for BrdU per 10 crypts."}, "[2]": {"test_system": "ischemia-reperfusion (IR) injury in rats", "experiment": "Rat ischemia-reperfusion injury: survival and intestinal mucosal parameters (bowel and mucosal weight, DNA, protein)", "protocol": "Animals: Animals were obtained from the Rappaport Faculty of Medicine (Technion, Haifa, Israel). Male rats weighing 240-260 g were kept in individual stainless steel cages at constant temperature and humidity, and a 12-hour light-dark cycle was maintained. Rats were fasted 12 hours prior to the experiment with free access to water.\nas §1\nIntestinal Mucosal Parameters: The small intestine from the pylorus to the ileo-cecal valve was removed and divided into two segments: proximal jejunum and distal ileum. The intestine was split on the antimesenteric border, washed with cold saline, dried, and each segment was weighed. The mucosa was scraped from the underlying tissue with a glass slide and weighed. Bowel and mucosal weights were calculated as mg/cm bowel length/100 g body weight. Mucosal samples were homogenized with TRIzol reagent (Rhenium LTD, Jerusalem). DNA and protein were extracted by the method of Chomczynski [BioTechniques. 15:532, 1993] and were expressed as micrograms per centimeter of bowel per 100 g of body weight. In brief, 100 mg tissue was mixed with 1 ml of TRIzol reagent and homogenized for 2 min. Following a three minute incubation period and centrifugation the contents separated into three phases. DNA was isolated from the interphase using ethanol, washed with sodium citrate and was stabilised with 75% ethanol. Protein was isolated from the lower phase using isopropyl alcohol, washed with guanidine hydrochloride, and stabilised with 100% ethanol. Quantitation of DNA was performed with a spectrophotomer. Concentration of the final protein concentration was detected using Bio-Rad Protein Assay technique.\nStatistical analysis: All data are given as mean±SD. Differences between experimental groups were tested for statistical significance (p<0.05) using the nonparametric Kruskal-Wallis ANOVA test, followed by the corrected Mann-Whitney test."}, "[3]": {"test_system": "rat model of short bowel syndrome", "experiment": "Rat model of SBS: body weight and intestinal adaptation parameters (bowel circumference, bowel and mucosal weight, mucosal DNA and protein)", "protocol": "Animal treatment: Animals were obtained from the Rappaport Faculty of Medicine (Technion, Haifa, Israel). Male rats weighing 240-260 g were kept in individual stainless steel cages at constant temperature and humidity, and a 12-hour light-dark cycle was maintained. Rats were fasted 12 hours prior to the experiment with free access to water. Animals underwent one of two surgical procedures: bowel transection and re-anastomosis or 75% bowel resection and anastomosis. General anesthesia was induced with Pentobarbital (IP 40 mg/kg). Using sterile techniques, the abdomen was opened using a midline incision. In sham rats, simple bowel transection and end-to-end re-anastomosis was performed 15 cm proximal to ileo-cecal junction. In SBS animals, small bowel was resected from a point 5 cm distal to the ligament of Treitz to a point 10 cm proximal to the ileo-cecal junction. Bowel continuity was restored by end-to-end anastomosis using 5-0 Vicryl interrupted sutures. For all operations, the abdominal cavity was closed in two layers with a running suture of 3-0 Dexon. Prior to closure of the abdomen, the rats were resuscitated with a 3 ml intraperitoneal injection of warm normal saline. Rats were fasted for 24 hours but were allowed free access to water.\nExperimental design: Forty rats were randomly assigned to one of three groups:\nGroup A—sham-rats underwent bowel transection (sham, n=14) and than fed with regular chow diet.\nGroup B—SBS-animals underwent bowel resection (SBS, n=13) and than fed regular chow diet.\nGroup C—SBS-Insulin (SBS-INS, n=13) rats underwent bowel resection and were fed regular chow diet and water containing insulin (ACTRAPID insulin, NOVO NORDISK, Denmark) at concentration of 1 u/ml. Food and fluid intake of animals were monitored as well as weight for a period of 14 days following treatment after which the animals were sacrificed following intraperitoneal injection of pentobarbital (75 mg/kg).\nIntestinal adaptation parameters: The small bowel was rapidly removed, rinsed with cold isotonic saline and divided into two segments: jejunum proximal to anastomosis and terminal ileum. Each segment was weighed, cut longitudinally, bowel circumference was measured in three equidistant points as described by Dowling [Dowling R H, Booth C C, 1967, Clin Sci; 32: 139-149] and the mean circumference was calculated. Mucosa was scraped using a glass slide, collected and weighed. Bowel and mucosal weight was calculated per cm of bowel length per 100 g of body weight as described previously [Sukhotnik I, et al., 2002, J Surg Res., December; 108(2):235-42]. Although bowel length may change due to spasm or bowel distension, the calculation per unit of bowel length is considered to be the gold standard in describing structural changes in intestine. DNA and protein were extracted using TRIzol reagent (Rhenium LTD, Jerusalem). The DNA concentrations were recorded in a spectrophotometer and calculated per cm of bowel length. Final protein concentration was measured spectrophotometrically using a commercially available kit (Bio-Rad, Protein Assay) and was calculated per cm of bowel length.\nStatistical analysis: The data are expressed as the mean±SEM. A paired Student's t-test and the non-parametric Kruskal-Wallis ANOVA test were used as indicted. p<0.05 was considered statistically significant."}, "[4]": {"details": "IR-INS rats, 24 h reperfusion, IR 18±3, p<0.05"}, "[5]": {"details": "SBS rats, oral insulin 1 u/ml in water, 14 days, vs SBS-untreated, p<0.05"}, "[6]": {"details": "SBS rats, oral insulin supplementation (summary)"}, "[7]": {"details": "SBS rats, oral insulin, vs SBS-untreated"}},
  "data": [
    {"substance": "insulin", "values": [
      {"measurement": "enterocyte proliferation index in ileum", "setting": "[1]; IR 173±8", "value": "289±26 BrdU positive cells/10 crypts"},
      {"measurement": "enterocyte proliferation index in jejunum", "setting": "[1]; IR 212±18", "value": "298±21 BrdU positive cells/10 crypts"},
      {"measurement": "post-operative mortality", "setting": "[2]; IR rats, insulin in drinking water (2%) 3 days prior to and 24 hours following IR", "value": "no effect"},
      {"measurement": "ileal mucosal weight", "setting": "[2]; IR-INS rats, 24 h reperfusion, IR 5.9±0.6, p<0.05", "value": "7.3±0.4", "unit": "mg/cm/100 g"},
      {"measurement": "jejunal mucosal weight", "setting": "[2]; IR-INS rats, 24 h reperfusion, IR 7.0±0.6, p<0.05", "value": "8.9±0.6", "unit": "mg/cm/100 g"},
      {"measurement": "mucosal protein in ileum", "setting": "[2]; [4]", "value": "25±2", "unit": "μg/cm/100 g"},
      {"measurement": "mucosal protein in jejunum", "setting": "[2]; [4]", "value": "28±3", "unit": "μg/cm/100 g"},
      {"measurement": "jejunal intestinal (bowel) weight", "setting": "[2]; IR-INS rats, 24 h reperfusion, IR 20.1±0.7, p<0.05", "value": "23±0.8", "unit": "mg/cm/100 g"},
      {"measurement": "additional increase in ileal overall bowel weight", "setting": "[3]; [5]", "value": 40, "unit": "%"},
      {"measurement": "additional increase in jejunal mucosal weight", "setting": "[3]; [5]", "value": 33, "unit": "%"},
      {"measurement": "additional increase in jejunal overall bowel weight", "setting": "[3]; [5]", "value": 18, "unit": "%"},
      {"measurement": "increase in ileal mucosal DNA content", "setting": "[3]; [5]", "value": "almost two-fold increase"},
      {"measurement": "increase in ileal mucosal protein content", "setting": "[3]; [5]", "value": "two-fold increase"},
      {"measurement": "increase in ileal mucosal weight", "setting": "[3]; [5]", "value": "almost two fold increase"},
      {"measurement": "increase in mucosal weight in the remaining segments", "setting": "[3]; [6]", "value": "30-200%"},
      {"measurement": "increase in overall bowel weight in the remaining segments", "setting": "[3]; [6]", "value": "20-50%"},
      {"measurement": "increase in bowel diameter", "setting": "[3]; SBS rats, oral insulin supplementation, remaining segments (summary)", "value": "approximately 10%"},
      {"measurement": "mucosal DNA in jejunum", "setting": "[3]; [7]", "value": "not associated with an increase"},
      {"measurement": "mucosal protein in jejunum", "setting": "[3]; [7]", "value": "not associated with an increase"},
      {"measurement": "body weight gain", "setting": "[3]; SBS-INS rats (insulin 1 u/ml in water) vs SBS-nontreated, day 7 through 14, p<0.05", "value": "gained weight at greater rate"},
      {"measurement": "jejunal and ileal bowel circumference", "setting": "[3]; SBS-insulin rats vs SBS-untreated, 14 days, insulin 1 u/ml in water", "value": "additional increase"}
    ]}
  ]
}
